Reference: patent US4348393A, “N-Aryl oxazolidinones, oxazolidinethiones, pyrrolidinones, pyrrolidines and thiazolidinones” (Delalande S.A., priority 1978, dated 1982)
Like-named read-outs stand apart in the source and are kept apart here.

Columns and labels:
[1] = system: ptosis observed one hour after reserpine; assay: Test B: antagonism of reserpine-induced ptosis in mice; type: in vivo; conditions: Mus musculus, 1 h, po, antagonism of ptosis one hour after reserpine 2 mg/kg intravenous, read-out: Test B ED 50
Method: Test B: Antagonism with respect to the ptosis observed one hour after an intravenous injection (2 mg/kg) of reserpine given to mice, following the protocol described by C.

[2] = system: generalized trembling caused by dl-5-hydroxytryptophane; assay: Test A: potentiation in mice of generalized trembling caused by dl-5-hydroxytryptophane; type: in vivo; conditions: Mus musculus, po, read-out: Test A ED 50
Method: Test A: Potentiation in mice of generalized trembling caused by an interperitoneal injection (200 mg/kg) of dl-5-hydroxytryptophane, following the protocol described by C. GOURET and G. RAYNAUD in J. Pharmacol. (Paris), (1974), 5, 231.

[3] = mice, potentiation of trembling by dl-5-hydroxytryptophane 200 mg/kg interperitoneal

| Structure (SMILES) | ED50 [1] [mg/kg] | ED50 [2, 3] [mg/kg] | ED50 [2] [mg/kg] |
| --- | --- | --- | --- |
| CCOc1ccc(N2CC(CO)OC2=S)cc1 (stereo not drawn) [compound 87, para ethoxyphenyl-3 hydroxymethyl-5 oxazolidine thione-2] | 44 | 29 |  |
| CCCCCCCCC(=O)OCC1CN(c2ccc(OCc3cccc(Cl)c3)cc2)C(=O)O1 (stereo not drawn) [compound 35] | 6.5 | 19 |  |
| O=C(OCC1CN(c2ccc(OCC3CCCC3)cc2)C(=O)O1)c1ccccc1 (stereo not drawn) [compound 20] | 3.7 | 8.8 |  |
| COCC1CN(c2ccc(OCc3cc(Cl)cc(Cl)c3)cc2)C(=O)O1 (stereo not drawn) [compound 166] | 3.4 | 3.8 |  |
| NCC1CN(c2ccc(OCc3ccccc3)cc2)C(=O)O1 (stereo not drawn) [compound 80] | 25 | 20 |  |
| COCC1CN(c2ccc(OCc3ccc(Cl)c(Cl)c3)cc2)C(=O)O1 (stereo not drawn) [compound 164] | 3.4 | 3.4 |  |
| CC(C)CCOc1ccc(N2CC(COC(=O)C(C)C)OC2=O)cc1 (stereo not drawn) [compound 127] | 4.3 | 5 |  |
| COCC1CN(c2ccc(OCCCCC#N)cc2)C(=S)O1 (stereo not drawn) [compound 217] | 1 | 1 |  |
| COCC1CN(c2ccc(OCc3cccc(Cl)c3)cc2)C(=O)O1 (stereo not drawn) [compound 59] | 3.1 | 3.4 |  |
| O=C(OCC1CN(c2ccc(OCC3CCCCC3)cc2)C(=O)O1)C1CCCCC1 (stereo not drawn) [compound 121] | 8 | 11 |  |
| CC(C)C(=O)OCC1CN(c2ccc(OCC3CCCCC3)cc2)C(=O)O1 (stereo not drawn) [compound 103] | 6 | 5 |  |
| CCCCOc1ccc(N2CC(COC(C)=O)OC2=O)cc1 (stereo not drawn) [compound 11] | 6.2 | 4.2 |  |
| CC(C)(C)C(=O)OCC1CN(c2ccc(OCc3cccc([N+](=O)[O-])c3)cc2)C(=O)O1 (stereo not drawn) [compound 40] | 1.5 | 6.2 |  |
| OCC1CN(c2ccc(OCc3ccc(F)cc3)cc2)C(=S)O1 (stereo not drawn) [compound 96] | 3.6 | 4.7 |  |
| CCCCOc1ccc(N2CC(CO)OC2=S)cc1 (stereo not drawn) [compound 89] | 12.5 | 12.5 |  |
| CCCOCC1CN(c2ccc(OCc3ccccc3)cc2)C(=O)O1 (stereo not drawn) [compound 152] | 15.5 | 18 |  |
| CC(=O)OCC1CN(c2ccc(OCC3CCCCC3)cc2)C(=O)O1 (stereo not drawn) [compound 21] | 3.5 | 2.1 |  |
| CC(=O)OCC1CN(c2ccc(OCc3cccc(Cl)c3)cc2)C(=O)O1 (stereo not drawn) [compound 30] | 4.5 | 4.2 |  |

| Structure (SMILES) | ED50 [1] [mg/kg] | ED50 [2, 3] [mg/kg] | ED50 [2] [mg/kg] |
| --- | --- | --- | --- |
| CC(C)C(=O)OCC1CN(c2ccc(OCC3CCCC3)cc2)C(=O)O1 (stereo not drawn) [compound 15] | 2 | 2.2 |  |
| Cc1cccc(N2CC(CO)OC2=O)c1 (stereo not drawn) [TOLOXATONE, reference compound] | 50 | 60 |  |
| CN(C)CC1CN(c2ccc(OCc3cccc([N+](=O)[O-])c3)cc2)C(=O)O1 (stereo not drawn) [compound 86] | 4.8 |  | 4.5 |
| O=C(OCC1CN(c2ccc(OCc3cccc([N+](=O)[O-])c3)cc2)C(=O)O1)c1ccccc1 (stereo not drawn) [compound 43] | 17.5 | 15 |  |
| COCC1CN(c2ccc(OCc3ccc(F)c(C#N)c3)cc2)C(=O)O1 (stereo not drawn) [compound 162] | 1.55 | 0.54 |  |
| CCCCC(=O)OCC1CN(c2ccc(OCc3ccccc3)cc2)C(=O)O1 (stereo not drawn) [compound 26] | 20 | 12.5 |  |
| NCC1CN(c2ccc(OCc3cccc([N+](=O)[O-])c3)cc2)C(=O)O1 (stereo not drawn) [compound 84] | 1.3 | 3 |  |
| CCCOCC1CN(c2ccc(OCCC#N)cc2)C(=O)O1 (stereo not drawn) [compound 145] | 12 | 8.5 |  |
| OCC1CN(c2ccc(OCc3cccc(C(F)(F)F)c3)cc2)C(=S)O1 (stereo not drawn) [compound 98] | 12.5 | 12.5 |  |
| COCC1CN(c2cccc(C)c2)C(=O)O1 (stereo not drawn) [compound 45] | 50 | 45 |  |
| COCC1CN(c2ccc(OCc3ccc(F)c(Cl)c3)cc2)C(=O)O1 (stereo not drawn) [compound 163] | 8 | 1.15 |  |
| CC(C)OCC1CN(c2ccc(OCCC#N)cc2)C(=O)O1 (stereo not drawn) [compound 53] | 5.8 | 5 |  |
| CCC(=O)OCC1CN(c2ccc(OCC#N)cc2)C(=O)O1 (stereo not drawn) [compound 2] | 8 | 12.5 |  |
| CCCCCCCCC(=O)OCC1CN(c2ccc(OCc3cccc(F)c3)cc2)C(=O)O1 (stereo not drawn) [compound 131] | 31 | 12 |  |
| NCC1CN(c2ccc(OCC3CCCC3)cc2)C(=O)O1 (stereo not drawn) [compound 76] | 6.2 | 2.1 |  |
| O=C(OCC1CN(c2ccc(OCc3cccc([N+](=O)[O-])c3)cc2)C(=O)O1)C1CCCCC1 (stereo not drawn) [compound 41] | 4.5 | 6.2 |  |
| CC(C)(C)C(=O)OCC1CN(c2ccc(OCc3ccccc3)cc2)C(=O)O1 (stereo not drawn) [compound 27] | 44 | 25 |  |
| CCOCC1CN(c2ccc(OCc3cccc(C#N)c3)cc2)C(=O)O1 (stereo not drawn) [compound 167] | 3 | 3.7 |  |
